# From the supplement of paper PMC11451515
# Tested on: NOMO1
# Assay: cell viability relative to DMSO control; higher = less cytotoxic
# Details: 48 h
# In short: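 NOMO1 or SEM (500 cells/well) or P12-Ichikawa (1000 cells/well) leukemia cells were adapted for at least four passages in each medium. They were seeded in 1536-well plates (5 μl) and pin-dosed with library compounds in DMSO over an 11-point threefold series, 47 μM to 0.79 nM. CellTiter-Glo One luminescence was read after 48 h at 37°C. Viability is the per-plate percentage relative to DMSO wells, with cell-free wells as background.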
# [1] = HPLM + 10% dialyzed FBS, 0.000781 µM
# [2] = HPLM + 10% dialyzed FBS, 0.00234 µM
# [3] = HPLM + 10% dialyzed FBS, 0.00702 µM
# [4] = HPLM + 10% dialyzed FBS, 0.0211 µM
# [5] = HPLM + 10% dialyzed FBS, 0.0632 µM
# [6] = HPLM + 10% dialyzed FBS, 0.19 µM
# [7] = HPLM + 10% dialyzed FBS, 0.569 µM
# [8] = HPLM + 10% dialyzed FBS, 1.71 µM
# [9] = HPLM + 10% dialyzed FBS, 5.12 µM
# [10] = HPLM + 10% dialyzed FBS, 15.4 µM
# [11] = HPLM + 10% dialyzed FBS, 46.1 µM
# [12] = RPMI 5 mM glucose + 10% FBS, 0.000781 µM
# [13] = RPMI 5 mM glucose + 10% FBS, 0.00234 µM
# [14] = RPMI 5 mM glucose + 10% FBS, 0.00702 µM
# [15] = RPMI 5 mM glucose + 10% FBS, 0.0211 µM
# [16] = RPMI 5 mM glucose + 10% FBS, 0.0632 µM
# [17] = RPMI 5 mM glucose + 10% FBS, 0.19 µM
# [18] = RPMI 5 mM glucose + 10% FBS, 0.569 µM
# [19] = RPMI 5 mM glucose + 10% FBS, 1.71 µM
# [20] = RPMI 5 mM glucose + 10% FBS, 5.12 µM
# [21] = RPMI 5 mM glucose + 10% FBS, 15.4 µM
# [22] = RPMI 5 mM glucose + 10% FBS, 46.1 µM
# [23] = RPMI 5 mM glucose + 10% dialyzed FBS, 0.000781 µM
# [24] = RPMI 5 mM glucose + 10% dialyzed FBS, 0.00234 µM
# [25] = RPMI 5 mM glucose + 10% dialyzed FBS, 0.00702 µM
# [26] = RPMI 5 mM glucose + 10% dialyzed FBS, 0.0211 µM
# [27] = RPMI 5 mM glucose + 10% dialyzed FBS, 0.0632 µM
# [28] = RPMI 5 mM glucose + 10% dialyzed FBS, 0.19 µM
# [29] = RPMI 5 mM glucose + 10% dialyzed FBS, 0.569 µM
# [30] = RPMI 5 mM glucose + 10% dialyzed FBS, 1.71 µM
# [31] = RPMI 5 mM glucose + 10% dialyzed FBS, 5.12 µM
# [32] = RPMI 5 mM glucose + 10% dialyzed FBS, 15.4 µM
# [33] = RPMI 5 mM glucose + 10% dialyzed FBS, 46.1 µM
Compound,cell viability [1],cell viability [2],cell viability [3],cell viability [4],cell viability [5],cell viability [6],cell viability [7],cell viability [8],cell viability [9],cell viability [10],cell viability [11],cell viability [12],cell viability [13],cell viability [14],cell viability [15],cell viability [16],cell viability [17],cell viability [18],cell viability [19],cell viability [20],cell viability [21],cell viability [22],cell viability [23],cell viability [24],cell viability [25],cell viability [26],cell viability [27],cell viability [28],cell viability [29],cell viability [30],cell viability [31],cell viability [32],cell viability [33]
CC(C)C1NC(=O)C(NC(=O)C2=C3\N=C\4/C(=C(C)\C(=O)\C(=C4C(=O)NC5C(C)OC(=O)C(C(C)C)N(C)C(=O)CN(C)C(=O)C6CCCN6C(=O)C(NC5=O)C(C)C)N)OC3=C(C)C=C2)C(C)OC(=O)C(C(C)C)N(C)C(=O)CN(C)C(=O)C7CCCN7C1=O (stereo unspecified),7.64%,9.4%,7.42%,5.43%,6.88%,5.51%,6.57%,6.12%,3.81%,2.42%,2.47%,7.96%,9.36%,7.73%,5.14%,6.66%,5.99%,5.54%,6.58%,4.43%,2.79%,1.97%,5.95%,8.79%,6.56%,5.07%,5.04%,5.51%,4.5%,3.94%,3.31%,2.14%,2%
N[S+]([O-])(=O)C1=C(Cl)C=C2\N=C/N[S+]([O-])(=O)C2=C1,109%,109%,119%,122%,114%,121%,118%,119%,109%,116%,124%,94.2%,100%,109%,100%,112%,105%,112%,107%,114%,99.5%,101%,101%,105%,106%,112%,112%,108%,102%,105%,112%,105%,105%
CC(C)(O)CC[C@@H](O)[C@](C)(O)[C@H]1CC[C@@]2(O)C/3=C/C(=O)[C@@H]4C[C@@H](O)[C@@H](O)C[C@]4(C)[C@H]3CC[C@]12C,111%,98.6%,110%,86.8%,84.6%,98.5%,98%,103%,87.4%,94.9%,81.7%,87.9%,97.3%,86.9%,83.8%,93.2%,91.9%,91.2%,88.6%,80%,84.2%,83.1%,108%,110%,108%,95.2%,105%,91.6%,105%,90%,86.2%,88.1%,94.4%
CC[S+](=O)([O-])c1cccc(-c2cc(C(=O)NC3CCN(C)CC3)c(C)c3[nH]c4ncc(C)cc4c23)c1,118%,128%,120%,136%,126%,89.9%,115%,68.2%,52.6%,51%,6.96%,114%,115%,114%,135%,128%,111%,77.3%,83.9%,92.6%,47%,8.64%,124%,122%,130%,128%,138%,87.7%,80.7%,86.8%,80.3%,48.3%,8.02%
CN[C@@H](C)[C@H]1[C@H](O)C[C@@]2(C)[C@@H]3CC[C@H]4C(C)(C)[C@@H](NC)CC[C@@]45C[C@@]35CC[C@]12C,81.4%,102%,81.7%,108%,89.8%,93.7%,105%,95.2%,82.6%,105%,70.9%,85.4%,94.5%,91.6%,94.3%,102%,102%,95%,94.8%,93.9%,95.7%,92.5%,86.4%,87.8%,101%,99.6%,104%,95.6%,93.1%,91.7%,86.1%,99.6%,72.1%
C[C@]12COC(=O)C[C@@H]1CC[C@@H]1[C@@H]2CC[C@@]2(C)[C@H]1CC[C@]2(C)O,98%,109%,103%,91.1%,118%,98%,98.6%,103%,104%,97.1%,80%,90.7%,87.1%,86.4%,97.3%,101%,103%,95.1%,101%,90.8%,81.2%,84.1%,97.6%,101%,91.4%,102%,103%,92.2%,78.2%,92%,88.3%,92.4%,83.1%
ClC1=CC=C(C=C1)C(C#N)C2=C(Cl)C=C(C=C2Cl)N3\N=C/C(=O)NC3=O (stereo unspecified),82.4%,101%,99.5%,111%,112%,103%,125%,104%,97.8%,102%,107%,100%,93.4%,109%,102%,93.1%,94.6%,114%,107%,106%,100%,104%,80.1%,92.6%,86.5%,95.3%,87.1%,110%,99.6%,96.7%,94.6%,103%,98.4%
